# Data taken from patent publication US20240342175A1, “Compositions and Methods for Treating Spinal Cord Injury and Synaptic Dysfunction” (priority 2021, published 2024).
# Read-outs that look alike come from different tables or passages of the source.
# Assays:
# [1] = system: Fmr1 knock-out mice; assay: Fear conditioning in Fmr1 knock-out mice; assay type: in vivo; set-up: key: X indicates failure to ameliorate the phenotype; Y reversed the phenotype; details: repeat experiment, 15 days
# Method: (§1) Fmr1 knock-out mice (n=10) were orally administered 10 mg/kg/day or 100 mg/kg/day belumosudil or vehicle (BID) for 15 days. Control groups included wild type mice and knock out mice with vehicle. Mice treated with 100 mg/kg belumosudil ameliorated the following behavioral phenotypes: open field/hyperactivity, self-grooming/stereotypy, hyponeophagia/anxiety, nesting/test of daily living, 3-chamber social novelty/sociability; resident intruder and fear conditioning.
# (§2) The experiment was repeated where knock out mice received belumosudil at 20 mg/kg/day, 60 mg/kg/day and 100 mg/kg/day (BID) for 15 days. One group of knock out mice received 10 mg/kg/day belumosudil in combination with 10 mg/kg/day minocycline for 15 days. Control groups included wild type mice and knock out mice with vehicle. The results are set forth below, where X indicates failure to ameliorate the phenotype and Y reversed the phenotype: […]
# [2] = system: Fmr1 knock-out mice; assay: Self-grooming / stereotypy in Fmr1 knock-out mice; assay type: in vivo; set-up: key: X indicates failure to ameliorate the phenotype; Y reversed the phenotype; details: repeat experiment, 15 days
# Method: as §1, §2
# [3] = system: Fmr1 knock-out mice; assay: 3-chamber social novelty / sociability in Fmr1 knock-out mice; assay type: in vivo; set-up: key: X indicates failure to ameliorate the phenotype; Y reversed the phenotype; details: repeat experiment, 15 days
# Method: as §1, §2
# [4] = system: Fmr1 knock-out mice; assay: Hyponeophagia / anxiety in Fmr1 knock-out mice; assay type: in vivo; set-up: key: X indicates failure to ameliorate the phenotype; Y reversed the phenotype; details: repeat experiment, 15 days
# Method: as §1, §2
# [5] = system: Fmr1 knock-out mice; assay: Nesting / test of daily living in Fmr1 knock-out mice; assay type: in vivo; set-up: key: X indicates failure to ameliorate the phenotype; Y reversed the phenotype; details: repeat experiment, 15 days
# Method: as §1, §2
# [6] = cited from earlier work
# [7] = system: Fmr1 knock-out mice; assay: Novel object recognition / cognition in Fmr1 knock-out mice; assay type: in vivo; set-up: key: X indicates failure to ameliorate the phenotype; Y reversed the phenotype; details: repeat experiment, 15 days
# Method: as §1, §2
# [8] = system: Fmr1 knock-out mice; assay: Resident intruder in Fmr1 knock-out mice; assay type: in vivo; set-up: key: X indicates failure to ameliorate the phenotype; Y reversed the phenotype; details: repeat experiment, 15 days
# Method: as §1, §2
# [9] = system: Fmr1 knock-out mice; assay: Open field / hyperactivity in Fmr1 knock-out mice; assay type: in vivo; set-up: key: X indicates failure to ameliorate the phenotype; Y reversed the phenotype; details: repeat experiment, 15 days
# Method: as §1, §2
# [10] = belumosudil 100 mg/kg/day (BID)
smiles,measurement,setting,value
CC(C)NC(=O)COc1cccc(-c2nc(Nc3ccc4[nH]ncc4c3)c3ccccc3n2)c1 [belumosudil],Fear Conditioning,[1]; belumosudil 20 mg/kg/day (BID),X
same,Fear Conditioning,[1]; belumosudil 60 mg/kg/day (BID),Y
same,Fear Conditioning,[1]; [10],Y
same,Self-Grooming: Stereotypy,[2]; belumosudil 20 mg/kg/day (BID),X
same,Self-Grooming: Stereotypy,[2]; belumosudil 60 mg/kg/day (BID),X
same,Self-Grooming: Stereotypy,[2]; [10],Y
same,3 Chamber Social Novelty: Sociability,[3]; belumosudil 20 mg/kg/day (BID),X
same,3 Chamber Social Novelty: Sociability,[3]; belumosudil 60 mg/kg/day (BID),X
same,3 Chamber Social Novelty: Sociability,[3]; [10],Y
same,Hyponeophagia: Anxiety,[4]; belumosudil 20 mg/kg/day (BID),X
same,Hyponeophagia: Anxiety,[4]; belumosudil 60 mg/kg/day (BID),X
same,Hyponeophagia: Anxiety,[4]; [10],Y
same,Nesting: Test of Daily Living,[5]; belumosudil 20 mg/kg/day (BID),Y
same,Nesting: Test of Daily Living,[5]; belumosudil 60 mg/kg/day (BID),Y
same,Nesting: Test of Daily Living,[5]; [10],Y
same,AE: cough,[6]; 200 mg once daily (QD) arm,18
same,AE: diarrhea,[6]; 200 mg once daily (QD) arm,24%
same,AE: dyspnea,[6]; 200 mg once daily (QD) arm,20%
same,AE: edema,[6]; 200 mg once daily (QD) arm,24%
same,AE: fatigue,[6]; 200 mg once daily (QD) arm,30%
same,AE: liver related investigations,[6]; 200 mg once daily (QD) arm,20%
same,AE: nausea,[6]; 200 mg once daily (QD) arm,23%
same,Serious AE: nausea,[6]; 200 mg once daily (QD) arm,3%
same,Serious AE: pneumonia,[6]; 200 mg once daily (QD) arm,3%
same,Serious AE: pyrexia,[6]; 200 mg once daily (QD) arm,5%
same,Serious AE: vomiting,[6]; 200 mg once daily (QD) arm,3%
same,AE: cough,[6]; 200 mg twice daily (BID) arm,14%
same,AE: diarrhea,[6]; 200 mg twice daily (BID) arm,18%
same,AE: dyspnea,[6]; 200 mg twice daily (BID) arm,12%
same,AE: edema,[6]; 200 mg twice daily (BID) arm,15%
same,AE: fatigue,[6]; 200 mg twice daily (BID) arm,18%
same,AE: liver related investigations,[6]; 200 mg twice daily (BID) arm,23%
same,AE: nausea,[6]; 200 mg twice daily (BID) arm,20%
same,Serious AE: nausea,[6]; 200 mg twice daily (BID) arm,2%
same,Serious AE: pneumonia,[6]; 200 mg twice daily (BID) arm,3%
same,Serious AE: pyrexia,[6]; 200 mg twice daily (BID) arm,0
same,Serious AE: vomiting,[6]; 200 mg twice daily (BID) arm,2%
same,safety and efficacy in clinical trial,"[6]; 132 patients, 200 mg QD or 200 mg BID",safe and efficacious
same,Novel Object Recognition: Cognition,[7]; belumosudil 20 mg/kg/day (BID),X
same,Novel Object Recognition: Cognition,[7]; belumosudil 60 mg/kg/day (BID),X
same,Novel Object Recognition: Cognition,[7]; [10],X
same,Resident Intruder,[8]; belumosudil 20 mg/kg/day (BID),X
same,Resident Intruder,[8]; belumosudil 60 mg/kg/day (BID),Y
same,Resident Intruder,[8]; [10],Y
same,Open Field: Hyperactivity,[9]; belumosudil 20 mg/kg/day (BID),X
same,Open Field: Hyperactivity,[9]; belumosudil 60 mg/kg/day (BID),X
same,Open Field: Hyperactivity,[9]; [10],Y
